Like-named read-outs stand apart in the source and are kept apart here.
How the values were obtained:
Format in all cases: in vivo
[1] = test system: cotton melon aphid (Aphis gossypii Glover); assay: Test D: cotton melon aphid control on okra plants, insect mortality after 6 days; settings: Aphis gossypii, read-out: % Mortality (obs)
Description: The analysis of enhanced activity between the mixtures or compositions was determined using Colby's equation. The average % mortality data for the test compounds alone were inserted into the Colby's equation. If the observed (obs) average % mortality was higher than “p”, the expected (exp) % mortality, the mixture or composition had enhanced effects. If the observed average % mortality was equal to or lower than the expected mortality, the mixture or composition either had no enhanced effect. For bioassays where insect feeding damage was evaluated, enhanced activity is identified when the observed plant damage is less than the expected plant damage rating; ratings ranged between 0 (no damage) and 10 (dead plant) and each value was converted to a % plant protection. 100−(Obs Plant Damage*10)
For evaluating control of cotton melon aphid (Aphis gossypii Glover) through contact and/or systemic means, each test unit consisted of a small open container with a 6- to 7-day-old okra plant inside. This was pre-infested by placing on a leaf of the test plant 30 to 40 aphids on a piece of leaf excised from a culture plant (cut-leaf method). The […] moved onto the test plant as the leaf piece desiccated. After pre-infestation, the soil of the test unit was covered with a layer of sand.
Test compounds were formulated and sprayed as described for Test A. The applications were replicated three times. After spraying of the formulated test compounds, each test unit was allowed to dry for 1 hour and then a black, screened cap was placed on top. […]

[2] = test system: Potato Leafhopper (Empoasca fabae Harris); assay: Test C: Potato Leafhopper control on bean plants, insect mortality after 6 days; settings: read-out: % Mortality (obs)
Description: (§1) The pest control protection afforded by the mixtures or compositions is not limited, however, to these species. The analysis of enhanced activity between the mixtures or compositions was determined using Colby's equation. The average % mortality data for the test compounds alone were inserted into the Colby's equation. If the observed (obs) average % mortality was higher than “p”, the expected (exp) % mortality, the mixture or composition had enhanced effects. If the observed average % mortality was equal to or lower than the expected mortality, the mixture or composition either had no enhanced effect. For bioassays where insect feeding damage was evaluated, enhanced activity is identified when the observed plant damage is less than the expected plant damage rating; ratings ranged between 0 (no damage) and 10 (dead plant) and each value was converted to a % plant protection. 100−(Obs Plant Damage*10)
For evaluating control of Potato Leafhopper (Empoasca fabae Harris) through contact and/or systemic means, each test unit consisted of a small open container with a 5- to 6-day-old Longio bean plant (primary leaves emerged) inside. White sand was added to the top of the soil, and one of the primary leaves was excised prior to application. Test compounds were formulated and sprayed with 3 replications as described for Test A. After spraying, the test units were allowed to dry for 1 hour before they were infested with 5 potato leafhoppers (18- to 21-day-old adults). A black, screened cap was placed on the top of each container. The test units were held for 6 days in a growth chamber at 19-21° C. and 50-70% relative humidity.

[3] = test system: silverleaf whitefly (Bemisia argentifolii Bellows and Perring); assay: Test A: silverleaf whitefly control on cotton or soybean plants, spray, insect mortality after 13 days; settings: Bemisia argentifolii, applied alone, read-out: % Mortality (obs)
Description: as §1
For evaluating control of silverleaf whitefly (Bemisia argentifolii Bellows and Perring) through contact and/or systemic means, each test unit consisted of a small open container with a 12- to 14-day-old cotton plant or 5-7 day old soybean plant inside. This was pre-infested by placing test units into cages containing adult whiteflies so that oviposition on the cotton leaves could occur. The adults were removed from the plants with an air-blast nozzle, and the test units were capped. The test units were then stored 2 to 3 days before spraying.
Test compounds were formulated using a solution containing 10% acetone, 90% water and 300 ppm Activator 90@ Spreader Lo-Foam Formula non-ionic surfactant containing alkylarylpolyoxyethylene, free fatty acids, glycols and 2-propanol (Loveland Industries, Inc.) to provide the desired concentration in ppm. Formulated test solutions were then applied in 1 mL volumes through a SUJ2 atomizer nozzle with ⅛ JJ custom body (Spraying Systems Co.) positioned 1.27 cm (0.5 inches) above the top of each test unit.
The results for all experimental compositions in this test were replicated three times. After spraying of the formulated test composition, each test unit was allowed to dry for 1 hour and the cap removed. The test units were held for 13 days in a growth chamber at 28° C. and 50-70% relative humidity.

[4] = test system: diamondback moth (Plutella xylostella L.); assay: Test E: diamondback moth control on mustard plants, contact and/or systemic, plant damage rating after 6 days
Description: as §1
For evaluating control of diamondback moth (Plutella xylostella L.) through contact and/or systemic means, each test unit consisted of a small open container with a 10- to 12-day-old mustard plant inside. Test compounds were formulated and sprayed with 3 replications as described for Test A. After spraying, the test units were allowed to dry for 1 hour before they were infested with 30-50 neonate larvae. A black, screened cap was placed on the top of each container. The test units were held for 6 days in a growth chamber at 24-25° C. and 70% relative humidity. Each test unit was then visually assessed for plant damage and rated 0-10, where 0=undamaged and 10=plant is dead; the results are listed in Tables 6a-b.

CC(C)(CS(C)(=O)=O)NC(=O)c1ccc(F)c2nn(-c3cccnc3)cc12 [Cpd 3, N-[1,1-dimethyl-2-(methylsulfonyl)ethyl]-7-fluoro-2-(3-pyridinyl)-2H-indazole-4-carboxamide]
mortality at 0.02 ppm ([1]; 5 h, Table 5h): 37.4%
mortality at 0.08 ppm ([1]; 5 h, Table 5h): 43.5%
mortality at 0.02 ppm ([1]; 120 h, Table 5d): 20%
mortality at 0.08 ppm ([1]; 120 h, Table 5d): 43.2%
mortality at 0.02 ppm ([1]; Table 5a): 20%
mortality at 0.08 ppm ([1]; Table 5a): 43.2%
mortality at 0.02 ppm ([1]; Table 5b): 20%
mortality at 0.08 ppm ([1]; Table 5b): 43.2%
mortality at 0.02 ppm ([1]; Table 5c): 0%
mortality at 0.08 ppm ([1]; Table 5c): 20%
mortality at 0.02 ppm ([1]; Table 5e): 19.9%
mortality at 0.08 ppm ([1]; Table 5e): 31.1%
mortality at 0.02 ppm ([1]; Table 5f): 17.6%
mortality at 0.08 ppm ([1]; Table 5f): 39%
mortality at 0.02 ppm ([1]; Table 5g): 15.8%
mortality at 0.08 ppm ([1]; Table 5g): 30.6%
mortality at 50 ppm ([2]; Table 4a): 0%
mortality at 250 ppm ([2]; Table 4a): 0%
mortality at 50 ppm ([2]; Table 4b): 13.3%
mortality at 250 ppm ([2]; Table 4b): 0%
mortality at 50 ppm ([2]; Table 4c): 6.7%
mortality at 250 ppm ([2]; Table 4c): 0%
mortality at 50 ppm ([3]; 2 h, Table 2h): 0%
mortality at 250 ppm ([3]; 2 h, Table 2h): 0%
mortality at 50 ppm ([3]; 48 h, Table 2d): 1.2%
mortality at 250 ppm ([3]; 48 h, Table 2d): 1.1%
mortality at 50 ppm ([3]; Table 2a): 25%
mortality at 250 ppm ([3]; Table 2a): 1.6%
mortality at 50 ppm ([3]; Table 2b): 0%
mortality at 250 ppm ([3]; Table 2b): 0%
mortality at 50 ppm ([3]; Table 2c): 16.1%
mortality at 250 ppm ([3]; Table 2c): 26.7%
mortality at 50 ppm ([3]; Table 2e): 1.3%
mortality at 250 ppm ([3]; Table 2e): 1.2%
mortality at 50 ppm ([3]; Table 2f): 21.2%
mortality at 250 ppm ([3]; Table 2f): 25.3%
mortality at 50 ppm ([3]; Table 2g): 18%
mortality at 250 ppm ([3]; Table 2g): 27.7%
Plant Protection (obs) ([4]; Table 6a, 50 ppm): 0.0
Plant Protection (obs) ([4]; Table 6a, 250 ppm): 0.0
Plant Protection (obs) ([4]; Table 6b, 50 ppm): 0.0
Plant Protection (obs) ([4]; Table 6b, 250 ppm): 0.0

O=C(NC1(C(F)F)CC1)c1cccc2nn(-c3cccnc3)cc12 [Cpd 5, N-[1-(difluoromethyl)cyclopropyl]-2-(3-pyridinyl)-2H-indazole-4-carboxamide]
mortality at 0.12 ppm ([1]; 5 h, Table 5h): 40%
mortality at 0.18 ppm ([1]; 5 h, Table 5h): 68.4%
mortality at 0.12 ppm ([1]; 120 h, Table 5d): 34%
mortality at 0.18 ppm ([1]; 120 h, Table 5d): 62.7%
mortality at 0.12 ppm ([1]; Table 5a): 34%
mortality at 0.18 ppm ([1]; Table 5a): 62.7%
mortality at 0.12 ppm ([1]; Table 5b): 34%
mortality at 0.18 ppm ([1]; Table 5b): 62.7%
mortality at 0.12 ppm ([1]; Table 5c): 73.3%
mortality at 0.18 ppm ([1]; Table 5c): 6.7%
mortality at 0.12 ppm ([1]; Table 5e): 32.2%
mortality at 0.18 ppm ([1]; Table 5e): 61.6%
mortality at 0.12 ppm ([1]; Table 5f): 44.9%
mortality at 0.18 ppm ([1]; Table 5f): 58.9%
mortality at 0.12 ppm ([1]; Table 5g): 25.8%
mortality at 0.18 ppm ([1]; Table 5g): 44.3%
mortality at 0.12 ppm ([1]; Table 5i): 41.6%
mortality at 0.18 ppm ([1]; Table 5i): 70.3%
mortality at 0.12 ppm ([1]; Table 5j): 41.6%
mortality at 0.18 ppm ([1]; Table 5j): 70.3%
mortality at 0.12 ppm ([1]; Table 5k): 35.9%
mortality at 0.18 ppm ([1]; Table 5k): 67.2%
mortality at 0.12 ppm ([1]; Table 5l): 35.9%
mortality at 0.18 ppm ([1]; Table 5l): 67.2%
mortality at 0.12 ppm ([1]; Table 5m): 37.3%
mortality at 0.18 ppm ([1]; Table 5m): 61.7%
mortality at 0.12 ppm ([1]; Table 5n): 48.9%
mortality at 0.18 ppm ([1]; Table 5n): 77.7%
mortality at 50 ppm ([2]; Table 4a): 0%
mortality at 250 ppm ([2]; Table 4a): 26.7%
mortality at 50 ppm ([2]; Table 4b): 0%
mortality at 250 ppm ([2]; Table 4b): 6.7%
mortality at 50 ppm ([2]; Table 4c): 6.7%
mortality at 250 ppm ([2]; Table 4c): 26.7%
mortality at 50 ppm ([3]; 2 h, Table 2h): 0%
mortality at 250 ppm ([3]; 2 h, Table 2h): 6.9%
mortality at 50 ppm ([3]; 48 h, Table 2d): 8.9%
mortality at 250 ppm ([3]; 48 h, Table 2d): 11.7%
mortality at 50 ppm ([3]; Table 2a): 17%
mortality at 250 ppm ([3]; Table 2a): 13.5%
mortality at 50 ppm ([3]; Table 2b): 49%
mortality at 250 ppm ([3]; Table 2b): 19.2%
mortality at 50 ppm ([3]; Table 2c): 56.5%
mortality at 250 ppm ([3]; Table 2c): 41.1%
mortality at 50 ppm ([3]; Table 2e): 56.3%
mortality at 250 ppm ([3]; Table 2e): 11.2%
mortality at 50 ppm ([3]; Table 2f): 84.4%
mortality at 250 ppm ([3]; Table 2f): 55.1%
mortality at 50 ppm ([3]; Table 2g): 30%
mortality at 250 ppm ([3]; Table 2g): 73.4%
mortality at 50 ppm ([3]; Table 2i): 0%
mortality at 250 ppm ([3]; Table 2i): 0%
Plant Protection (obs) ([4]; Table 6a, 50 ppm): 0.0
Plant Protection (obs) ([4]; Table 6a, 250 ppm): 0.0
Plant Protection (obs) ([4]; Table 6b, 50 ppm): 0.0
Plant Protection (obs) ([4]; Table 6b, 250 ppm): 0.0
